2 molecules from patent US12691113B2 (AstraZeneca AB, priority 2019, dated 2026) can be followed below.

Entries after “also recorded” stand apart in the source; their conditions may differ.

The test system of one data set is OCI-LY19. Kind of data set: Cell viability assay (Cell Titer Glo, 72 hours). As to conditions: Homo sapiens, OCI-LY19, DLBCL GCB subtype, single agent. In kind it is cell-based. How it is done:
(§1) In addition, the study further explored the mechanism of action of the combination of acalabrutinib and capivasertib using western blot analysis.
(§2) Cell viability was measured using Cell Titer Glo reagent and readouts were taken using a Tecan plate reader with a 100 ms integration time. Data analysis was carried out using GeneData software version 15. A growth inhibition value less than 1 μM (GI50<1 μM) indicates sensitivity.

For another data set, the system named is OCI-LY10. Put plainly: Cell viability assay (Cell Titer Glo, 72 hours). In kind it is cell-based. The following applies: Homo sapiens, OCI-LY10, DLBCL ABC subtype, single agent. Here is the method: as §1, §2
A general note: ATP-based viability assays read luminescence as a measure of living cells.

A further data set has as its system WSU-DLCL2. Put plainly: Cell viability assay (Cell Titer Glo, 72 hours). It is filed as cell-based. As to conditions: Homo sapiens, WSUDLCL2, WSU-DLCL2, DLBCL GCB subtype, single agent. How it is done: as §1, §2
In the next data set the test system is Karpas-422. Put plainly: Cell viability assay (Cell Titer Glo, 72 hours). It is filed as cell-based. As to conditions: Homo sapiens, Karpas-422, DLBCL GCB subtype, single agent. How it is done: as §1, §2
For a further data set, the system named is HLY1. Put plainly: Cell viability assay (Cell Titer Glo, 72 hours). As to conditions: Homo sapiens, HLY1, DLBCL ABC subtype, single agent. In kind it is cell-based. Here is the method: as §1, §2
A further data set has as its system SuDHL6. Kind of data set: Cell viability assay (Cell Titer Glo, 72 hours). It is filed as cell-based. The following applies: Homo sapiens, SU-DHL-6, SuDHL6, DLBCL GCB subtype, single agent. How it is done: as §1, §2
Another data set deals with U2932. Put plainly: Cell viability assay (Cell Titer Glo, 72 hours). In kind it is cell-based. The following applies: Homo sapiens, U2932, DLBCL ABC subtype, single agent. Here is the method: as §1, §2
The subject of a further data set is WILL1. Kind of data set: Cell viability assay (Cell Titer Glo, 72 hours). It is filed as cell-based. As to conditions: WILL-1, WILL1, DLBCL Int subtype, single agent. How it is done:
as §1, §2

The test system of another data set is OCI-LY3. Kind of data set: Cell viability assay (Cell Titer Glo, 72 hours). It is filed as cell-based. The following applies: Homo sapiens, OCI-LY3, DLBCL ABC subtype, single agent. How it is done: as §1, §2
A further data set concerns TMD8. Kind of data set: Cell viability assay (Cell Titer Glo, 72 hours). In kind it is cell-based. As to conditions: Homo sapiens, TMD8, DLBCL ABC subtype, single agent. Here is the method:
as §1, §2

The next data set deals with SuDHL4. Put plainly: Cell viability assay (Cell Titer Glo, 72 hours). It is filed as cell-based. As to conditions: Homo sapiens, SU-DHL-4, SuDHL4, DLBCL GCB subtype, single agent. Here is the method: as §1, §2
For data set [1], the system named is TMD8 human ABC DLBCL xenograft. Put plainly: In vivo efficacy in subcutaneous TMD8 human ABC-DLBCL xenograft model. The arrangement: species or system mouse. As to conditions: SCID mice, oral BID, acalabrutinib 20 mg/kg; for TGI (tumor growth inhibition): capivasertib 130 mg/kg 4 days on/3 days off, after 24 days of treatment; for MAX AVG BODY WEIGHT LOSS: capivasertib 130 mg/kg, 24-day study. Here is the method:
(§3) TMD8 human ABC-DLBCL tumor cells (5×10^6/mouse) were implanted subcutaneously in female CB.17 SCID mice. […] Tumor length and width was measured by caliper and tumor volume was calculated using the formula (length×width^2)*π/6.
For orientation: In xenograft studies the graft and the host belong to different species.

The next data set deals with OCI-LY10 cells. Kind of data set: Western blot analysis of phospho-proteins. In kind it is cell-based, human. As to conditions: 2 or 24 hours; for phosphorylation of AKTS473: 100 nM acalabrutinib or both. The text has this:
(§4) Cells were then lysed in SDS lysis buffer, centrifuged and protein concentrations estimated. Samples were loaded onto Bis-Tris Novex gels, transferred onto nitrocellulose membranes and probed for phospho-proteins of interest.

The next data set relates to TMD8 cells. Put plainly: Western blot analysis of phospho-proteins. In kind it is cell-based, human. The following applies: 2 or 24 hours; for phosphorylation of AKTS473: 100 nM acalabrutinib or both.
Description: as §4

The test system of data set [2] is OCI-Ly10 human ABC DLBCL xenograft. Put plainly: In vivo efficacy in subcutaneous OCI-Ly10 human ABC-DLBCL xenograft model. The arrangement: species or system mouse. As to conditions: SCID mice, oral BID, acalabrutinib 20 mg/kg; for TGI (tumor growth inhibition): capivasertib 130 mg/kg 4 days on/3 days off, after 25 days of treatment; for MAX AVG BODY WEIGHT LOSS: capivasertib 130 mg/kg, 25-day study. How it is done:
OCI-ly10 human ABC-DLBCL tumor cells (5×10^6/mouse) were implanted subcutaneously in female CB.17 SCID mice. […] Tumor length and width was measured by caliper and tumor volume was calculated using the formula (length×width^2)*π/6.

Data set [3] can be described thus: Plasma pharmacokinetics in the TMD8 xenograft efficacy study. In kind it is in vivo, mouse. The following applies: TMD8 xenograft mice; oral; day 20; 1, 2, 4 and 8-hour time points. How it is done:
as §3

With `NC1(C(=O)N[C@@H](CCO)c2ccc(Cl)cc2)CCN(c2ncnc3[nH]ccc23)CC1` [capivasertib, (S)-4-amino-N-(1-(4-chlorophenyl)-3-hydroxypropyl)-1-(7H-pyrrolo[2,3-d]pyrimidin-4-yl)piperidine-4-carboxamide], the GI50 (in general, the concentration at which growth is held to half of that of the control) in the data set on OCI-LY19 was > 3000 nM; with OCI-LY10 it was > 3000 nM; with WSU-DLCL2 it was 60 nM; with Karpas-422, 200 nM; in the data set on HLY1, > 3000 nM; with SuDHL6, 360 nM. Besides, the concentration for 50% growth inhibition (GI50) in the data set with U2932 is > 3000 nM; in the data set with WILL1, > 3000 nM; in the data set with OCI-LY3 it was > 3000 nM; with TMD8, > 3000 nM; in the data set on SuDHL4 it was 710 nM. Further, the “TGI (tumor growth inhibition)” value in [1], in [1] (listed as Capivasertib), in data set [2] and in data set [2] (listed as Capivasertib) was 0% in each case. The “MAX AVG BODY WEIGHT LOSS” value in data set [1] worked out at 2%; in data set [2], 3%. In addition, the “phosphorylation of AKTS473” value with OCI-LY10 cells (1 μM capivasertib) and in the data set on TMD8 cells (1 μM capivasertib) was “increased” throughout. Further, the “phosphorylation of the downstream substrates PRAS40, GSK3β, FOXO and S6” value in the data set on OCI-LY10 cells (1 μM capivasertib) and in the data set with TMD8 cells (1 μM capivasertib) was “decreased” each time.

With `CC#CC(=O)N1CCC[C@H]1c1nc(-c2ccc(C(=O)Nc3ccccn3)cc2)c2c(N)nccn12` [acalabrutinib, 4-{8-amino-3-[(2S)-1-(but-2-ynoyl)pyrrolidin-2-yl]imidazo[1,5-a]pyrazin-1-yl}-N-(pyridin-2-yl)benzamide], the GI50 with OCI-LY19 was > 3000 nM; in the data set with OCI-LY10, 22 nM; in the data set with WSU-DLCL2, > 3000 nM; with Karpas-422, > 3000 nM; in the data set on HLY1 it was > 3000 nM; with SuDHL6, > 3000 nM. For the same molecule, the GI50 in the data set on U2932 was > 3000 nM; in the data set with WILL1, > 3000 nM; with OCI-LY3, > 3000 nM; with TMD8 it was 25 nM; in the data set with SuDHL4, > 3000 nM. Also, the “steady-state drug exposure levels (unbound plasma concentrations), single agent versus combination” value in data set [3] is on record as “similar; also recorded: comparable”. Besides, the “TGI (tumor growth inhibition)” value in [1] is listed as 81%; in data set [1] (listed as Acalabrutinib) it was 81%; in data set [2], 74%; in data set [2] (listed as Acalabrutinib), 74%. Moreover, the “MAX AVG BODY WEIGHT LOSS” value in data set [1] is given as 5%; in data set [2] it was 2%. Also, the “phosphorylation of BTK” value in the data set with OCI-LY10 cells (100 nM acalabrutinib) and in the data set on TMD8 cells (100 nM acalabrutinib) was “decrease” in each case. Further, the “phosphorylation of AKTS473” value in the data set with OCI-LY10 cells (1 μM capivasertib) and in the data set on TMD8 cells (1 μM capivasertib) was “decreased” each time.
